Data: patent publication US20050026783A1, “Herbicide combinations comprising specific sulfonamides” (priority 2003, published 2005)
Like-named read-outs stand apart in the source and are kept apart here.

Assays:
Triticum aestivum = type: in vivo; conditions: field trial, scored about 4 weeks after application, mean of 2-4 plots
Description: (§1) The seeds or rhizome pieces of the harmful plants and the useful plants were laid out or were present in the soil, and they were grown under natural outdoor conditions. Treatment with the active compounds or active compound combinations was carried out […] before and/or after the emergence of the plants, generally at the 2- to 4-leaf stage, in various dosages using a water application rate of 100 to 400 l/ha (converted).
(§2) After the application (about 4 weeks after the application), the effectiveness of the active compounds or active compound combinations was scored visually by comparing the treated plots to untreated control plots. During scoring, damage and development of all above-ground parts of plants was assessed. Scoring was carried out using a percentage scale (100% effect=all plants have died; 50% effect=50% of the plants and the green parts of the plants have died; 0% effect=no effect observed=like control plot). In each case, the mean score of 2-4 plots was calculated.
(§3) The results are shown in the table below; the effect of the individual application of active compounds (A+B) and C being stated in brackets.

Veronica hederifolia = type: in vivo; conditions: field trial, scored about 4 weeks after application, mean of 2-4 plots
Description: as §1, §2, §3

[1] = application rate 15 g of active substance/hectare
[2] = application rate 80 g of active substance/hectare
[3] = application rate 20 g of active substance/hectare

COc1cc(OC)nc(NC(=O)NS(=O)(=O)N(C)S(C)(=O)=O)n1 [amidosulfuron, 1-(4,6-dimethoxypyrimidin-2-yl)-3-mesyl-(methyl)sulfamoylurea]
Triticum aestivum % damage (Triticum aestivum; [1]): 0%
Veronica hederifolia % effect (Veronica hederifolia; [1]): 20%

CCCCCCCC(=O)Oc1c(I)cc(C#N)cc1I [ioxynil-octanoate]
Triticum aestivum % damage (Triticum aestivum; [2]): 0%
Veronica hederifolia % effect (Veronica hederifolia; [2]): 45%

CCCOc1nn(C(=O)[N-]S(=O)(=O)c2ccccc2C(=O)OC)c(=O)n1C.[Na+] [propoxycarbazone-sodium]
Triticum aestivum % damage (Triticum aestivum; [3]): 1%
Veronica hederifolia % effect (Veronica hederifolia; [3]): 25%
